Measured values as given in patent US5789431A, “Naphthoquinone antitumor compound and method” (The University of North Carolina at Chapel Hill, priority 1996, dated 1998).
Read-outs that look alike come from different tables or passages of the source.

Tests used:
HL-60(TB) = assay: in vitro leukemia cell growth inhibition (NCI screen)
SF-268 = assay: in vitro CNS cancer cell growth inhibition (NCI screen)
M19-MEL = assay: in vitro melanoma cell growth inhibition (NCI screen)
KM 20L2 = assay: in vitro colon cancer cell growth inhibition (NCI screen)
HCT-116 = assay: as above
786-0 = assay: in vitro renal cancer cell growth inhibition (NCI screen)
DLD-1 = assay: in vitro colon cancer cell growth inhibition (NCI screen)
SF-539 = assay: in vitro CNS cancer cell growth inhibition (NCI screen)
HT 29 = assay: in vitro colon cancer cell growth inhibition (NCI screen)
NCI-H460 = assay: in vitro non-small cell lung cancer cell growth inhibition (NCI screen)
NCI-H522 = assay: as above
LOX1MVI = assay: in vitro melanoma cell growth inhibition (NCI screen)
K-562 [1] = assay: in vitro leukemia cell growth inhibition (NCI screen)
human tumor cell lines = format: cell-based; conditions: Homo sapiens; non-small cell lung, CNS, melanoma, colon, leukemia, small cell lung, and renal cancer cell lines; read-out: logGI50 values (range over cell lines) (converted)
U 251 = assay: in vitro CNS cancer cell growth inhibition (NCI screen)
SR = assay: in vitro leukemia cell growth inhibition (NCI screen)
CCRF-CEM [2] = assay: as above
HCT-15 = assay: in vitro colon cancer cell growth inhibition (NCI screen)
OVCAR-8 = assay: in vitro ovarian cancer cell growth inhibition (NCI screen)
MOLT-4 [3] = assay: in vitro leukemia cell growth inhibition (NCI screen)
UACC-62 = assay: in vitro melanoma cell growth inhibition (NCI screen)
SNB-78 = assay: in vitro CNS cancer cell growth inhibition (NCI screen)
LXFL 529 = assay: in vitro non-small cell lung cancer cell growth inhibition (NCI screen)
NCI-H266 = assay: as above
XF-498 = assay: in vitro CNS cancer cell growth inhibition (NCI screen)
UACC-257 = assay: in vitro melanoma cell growth inhibition (NCI screen)
UO-31 = assay: in vitro renal cancer cell growth inhibition (NCI screen)
RXF-393 = assay: as above
SN12C = assay: as above
TK-10 = assay: as above
SNB-75 = assay: in vitro CNS cancer cell growth inhibition (NCI screen)
CAKI-1 = assay: in vitro renal cancer cell growth inhibition (NCI screen)
M14 = assay: in vitro melanoma cell growth inhibition (NCI screen)
HOP-92 = assay: in vitro non-small cell lung cancer cell growth inhibition (NCI screen)
SW 620 = assay: in vitro colon cancer cell growth inhibition (NCI screen)
SK-MEL-5 = assay: in vitro melanoma cell growth inhibition (NCI screen)
NCI-H23 = assay: in vitro non-small cell lung cancer cell growth inhibition (NCI screen)
OVCAR-3 = assay: in vitro ovarian cancer cell growth inhibition (NCI screen)
SK-MEL-28 = assay: in vitro melanoma cell growth inhibition (NCI screen)
HOP-18 = assay: in vitro non-small cell lung cancer cell growth inhibition (NCI screen)
MALME-3M = assay: in vitro melanoma cell growth inhibition (NCI screen)
COLO-205 = assay: in vitro colon cancer cell growth inhibition (NCI screen)
MOLT-4 [4] = conditions: human, molt-4 cells
CCRF-CEM [5] = conditions: human, ccrf-cem cells
K-562 [6] = conditions: human, k-562 cells
MDA-N = assay: in vitro breast cancer cell growth inhibition (NCI screen)
PC-3 = assay: in vitro prostate cancer cell growth inhibition (NCI screen)
T-47D = assay: in vitro breast cancer cell growth inhibition (NCI screen)
MDA-MB-435 = assay: as above
OVCAR-4 = assay: in vitro ovarian cancer cell growth inhibition (NCI screen); conditions: OVACR-4
IGROV1 = assay: as above
SK-MEL-2 = assay: in vitro melanoma cell growth inhibition (NCI screen)
MCF-7 = assay: in vitro breast cancer cell growth inhibition (NCI screen)
BT-549 = assay: as above
OVCAR-5 = assay: in vitro ovarian cancer cell growth inhibition (NCI screen)
HCC-2998 = assay: in vitro colon cancer cell growth inhibition (NCI screen)
DU-145 = assay: in vitro prostate cancer cell growth inhibition (NCI screen)

Structure (SMILES)	cytotoxicity log GI50 (HL-60(TB)) [M]	cytotoxicity log GI50 (SF-268) [M]	cytotoxicity log GI50 (M19-MEL) [M]	cytotoxicity log GI50 (KM 20L2) [M]	cytotoxicity log GI50 (HCT-116) [M]	cytotoxicity log GI50 (786-0) [M]	cytotoxicity log GI50 (DLD-1) [M]	cytotoxicity log GI50 (SF-539) [M]	cytotoxicity log GI50 (HT 29) [M]	cytotoxicity log GI50 (NCI-H460) [M]	cytotoxicity log GI50 (NCI-H522) [M]	cytotoxicity log GI50 (LOX1MVI) [M]	cytotoxicity log GI50 (K-562 [1]) [M]	cytotoxicity log GI50 (CCRF-CEM [2]) [M]	cytotoxicity log GI50 (HCT-15) [M]	cytotoxicity log GI50 (UACC-62) [M]	cytotoxicity log GI50 (UACC-257) [M]	cytotoxicity log GI50 (M14) [M]	cytotoxicity log GI50 (NCI-H23) [M]	cytotoxicity log GI50 (MALME-3M) [M]	other results
Cc1nc2c(n1Cc1ccc(Cl)cc1)C(=O)c1ccccc1C2=O [Compound 20]	-5.36	-5.29	-4.93	-5.09	-5.59	-5.25	-5.38	-5.60	-5.39	-5.76	-5.26	-5.69	-5.69	-5.33	-5.97	-5.47	–	–	–	–	GI50 (human tumor cell lines): 1 to 10 µM; cytotoxicity log GI50 (U 251): -5.46 M; cytotoxicity log GI50 (SR): -5.88 M; cytotoxicity log GI50 (OVCAR-8): -5.05 M; cytotoxicity log GI50 (MOLT-4 [3]): -5.50 M; cytotoxicity log GI50 (SNB-78): -5.03 M; cytotoxicity log GI50 (LXFL 529): -5.26 M
CC(=O)NC1=C(NCC(C)C)C(=O)c2ccccc2C1=O [Compound 31]	-5.56	-4.69	-4.73	-4.67	-4.69	-4.84	-4.72	-4.76	–	–	–	-4.81	-4.81	-5.14	-4.75	-4.74	-4.73	-4.74	-4.70	-4.72	cytotoxicity log GI50 (NCI-H266): -4.80 M; cytotoxicity log GI50 (XF-498): -4.85 M; cytotoxicity log GI50 (UO-31): -4.74 M; cytotoxicity log GI50 (RXF-393): -4.90 M; cytotoxicity log GI50 (SN12C): -4.77 M; cytotoxicity log GI50 (TK-10): -4.68 M; cytotoxicity log GI50 (SNB-75): -4.77 M; cytotoxicity log GI50 (CAKI-1): -4.78 M; cytotoxicity log GI50 (HOP-92): -4.85 M; cytotoxicity log GI50 (SW 620): -4.68 M; cytotoxicity log GI50 (SK-MEL-5): -4.70 M; cytotoxicity log GI50 (OVCAR-3): -4.78 M; cytotoxicity log GI50 (SK-MEL-28): -4.77 M; cytotoxicity log GI50 (HOP-18): -4.89 M; cytotoxicity log GI50 (LXFL 529): -4.79 M
CC(=O)NC1=C(NCCCl)C(=O)c2ccccc2C1=O [Compound 43]	–	–	–	–	-4.69	–	–	–	-4.58	–	-4.69	–	–	–	–	-4.70	-4.82	-4.89	-4.58	-4.86	cytotoxicity log GI50 (COLO-205): -4.55 M; cytotoxicity log GI50 (MOLT-4 [4]): -4.60 M; cytotoxicity log GI50 (CCRF-CEM [5]): -4.72 M; cytotoxicity log GI50 (K-562 [6]): -4.55 M; cytotoxicity log GI50 (SNB-75): -4.61 M; cytotoxicity log GI50 (MDA-N): -4.67 M; cytotoxicity log GI50 (SW 620): -4.60 M; cytotoxicity log GI50 (SK-MEL-5): -4.77 M; cytotoxicity log GI50 (PC-3): -4.65 M; cytotoxicity log GI50 (T-47D): -4.60 M; cytotoxicity log GI50 (MDA-MB-435): -4.78 M; cytotoxicity log GI50 (OVCAR-8): -4.70 M
COC(=O)CCCC(=O)NC1=C(Nc2ccc(OC)cc2)C(=O)c2ccccc2C1=O [Compound 53]	–	–	–	–	-4.71	–	–	-4.71	–	-4.80	–	–	–	–	–	-4.89	-4.74	-4.71	-4.69	-5.47	cytotoxicity log GI50 (OVCAR-4): -4.75 M; cytotoxicity log GI50 (IGROV1): -4.74 M; cytotoxicity log GI50 (MDA-N): -4.68 M; cytotoxicity log GI50 (OVCAR-3): -5.20 M; cytotoxicity log GI50 (SK-MEL-2): -4.75 M; cytotoxicity log GI50 (MDA-MB-435): -4.74 M; cytotoxicity log GI50 (MCF-7): -4.77 M; cytotoxicity log GI50 (SK-MEL-28): -4.68 M; cytotoxicity log GI50 (BT-549): -4.71 M; cytotoxicity log GI50 (OVCAR-5): -4.73 M; cytotoxicity log GI50 (HCC-2998): -4.69 M; cytotoxicity log GI50 (DU-145): -4.79 M
